Results: patent US7732666B1, “O-methyltransferase gene from sorghum cloning, expression, transformation and characterization” (priority 2006, dated 2010)
Where two headings read alike, the source gives them in different places.

T1: SbOMT1 (Sorghum bicolor, UniProt A8QW52)
T1 construct: full-length open reading frames for all three OMTs were overexpressed in E. coli as N-terminal polyhistidine fusions; polyhistidine (pET15b) (N); made in house; host or cells: E. coli BL21/DE3
T1 sequence (A8QW52 1-376): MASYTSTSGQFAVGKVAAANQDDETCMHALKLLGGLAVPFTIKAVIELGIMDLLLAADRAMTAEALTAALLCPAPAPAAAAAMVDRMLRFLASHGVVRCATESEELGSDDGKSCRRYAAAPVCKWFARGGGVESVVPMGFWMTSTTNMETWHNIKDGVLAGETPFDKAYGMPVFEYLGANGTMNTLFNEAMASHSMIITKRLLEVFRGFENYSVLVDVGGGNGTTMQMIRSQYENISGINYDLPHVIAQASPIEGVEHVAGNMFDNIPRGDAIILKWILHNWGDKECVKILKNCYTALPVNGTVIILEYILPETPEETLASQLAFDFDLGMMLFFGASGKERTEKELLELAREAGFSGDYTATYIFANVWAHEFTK

T2: SbOMT2 (Sorghum bicolor, UniProt A8QW51)
T2 construct: full-length open reading frames for all three OMTs were overexpressed in E. coli as N-terminal polyhistidine fusions; polyhistidine (pET15b) (N); made in house; host or cells: E. coli BL21/DE3
T2 sequence (A8QW51 1-372): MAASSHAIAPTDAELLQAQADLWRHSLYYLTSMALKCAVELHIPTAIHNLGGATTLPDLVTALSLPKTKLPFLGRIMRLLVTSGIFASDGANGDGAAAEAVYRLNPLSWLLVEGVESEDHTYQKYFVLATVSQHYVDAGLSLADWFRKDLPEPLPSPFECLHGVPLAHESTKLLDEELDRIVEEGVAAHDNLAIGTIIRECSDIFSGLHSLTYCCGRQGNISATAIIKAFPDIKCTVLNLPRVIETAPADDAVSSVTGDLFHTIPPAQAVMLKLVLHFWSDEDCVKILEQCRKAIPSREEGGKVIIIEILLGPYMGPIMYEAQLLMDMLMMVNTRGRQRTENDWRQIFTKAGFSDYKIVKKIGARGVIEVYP


How the values were obtained:
[1] = biological target: T1, SbOMT1; experiment: GC-MS analysis of products of recombinant SbOMT1 reacted with resveratrol; assay type: biochemical
Description: (§1) The products from these reactions were then chemically analyzed by gas chromatography/mass spectroscopy. […] Thus, only about 2% of the product obtained was pterostilbene; 88% was 3,5-dihydroxy-4′-methoxystilbene (FIG. 7B).

[2] = biological target: T1, SbOMT1; experiment: OMT enzymatic assay (radiometric, 14C-SAM) with recombinant SbOMT1; assay type: biochemical; details: relative to eugenol = 100%; 30 min at 30° C.
[3] = biological target: T3, SbOMT3 (Sorghum bicolor, UniProt A8QW53, DUP296-296); assay type: biochemical; details: for Relative Activity (%) of Recombinant SbOMT3: relative to 5-n-pentyl-resorcinol = 100%, 30 min at 30° C.; for Km: recombinant SbOMT3, alkylresorcinols and co-substrate SAM
T3 construct: full-length open reading frames for all three OMTs were overexpressed in E. coli as N-terminal polyhistidine fusions; polyhistidine (pET15b) (N); made in house; host or cells: E. coli BL21/DE3
T3 sequence (A8QW53 other isoform, or with tags, fused parts or gaps DUP296-296): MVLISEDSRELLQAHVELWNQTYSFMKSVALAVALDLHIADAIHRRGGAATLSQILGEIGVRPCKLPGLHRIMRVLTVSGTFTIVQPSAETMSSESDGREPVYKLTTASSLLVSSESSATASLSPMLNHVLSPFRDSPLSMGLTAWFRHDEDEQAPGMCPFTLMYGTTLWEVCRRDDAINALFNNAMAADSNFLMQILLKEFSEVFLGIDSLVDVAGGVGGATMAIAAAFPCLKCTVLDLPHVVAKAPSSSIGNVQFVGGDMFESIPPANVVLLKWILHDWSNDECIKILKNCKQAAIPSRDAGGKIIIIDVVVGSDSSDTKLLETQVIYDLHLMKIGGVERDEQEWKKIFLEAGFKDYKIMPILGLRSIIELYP
Method: (§2) Substrate specificities and kinetic parameters for recombinant OMTs were determined using to a modified protocol based on Wang and Pichersky (1999. Arch. Biochem. Biophys. 368: 172-180). All enzymatic assays consisted of 90 μL of assay buffer (250 mM Tris-HCl, pH 7.5, 10 mM DTT), 200 μL of purified enzyme preparation (200 μg protein/ml in), 5 μL of a 10 mM substrate stock solution (dissolved in 100% ethanol), and 5 μL of S-[methyl-^14C] adenosyl-L-methionine (40-60 mCi/mmol, 0.1 mCi/ml; ICN Biomedicals, Irvine, Calif.). Reactions were incubated for 30 min at 30° C. using a Thermomixer (Brinkman Instrument, Westbury, N.Y.), then quenched by addition of 25 μL of 6 N HCl. Radiolabeled products were subsequently extracted by the addition of 1 mL of hexane:ethyl acetate (1:1 vol/vol), and 300 μL of the (upper) organic phase were transferred to scintillation vials containing 5 mL of Ultima Gold scintillation fluid (Packard BioScience, Meriden, CT). Scintillation counts were performed using a Tri-Carb 1600TR Liquid Scintillation Analyzer (Packard BioScience). Protein concentrations and time points used for activity measurements were controlled to insure linearity of the assays. Kinetic parameters were determined from assays performed in triplicate as described above, but with substrate concentrations ranging from 10 μM to 10 mM. Data from enzyme kinetics experiments were fit to the Michaelis-Menten equation using the SigmaPlot v. 9.01 enzyme kinetics module (Systat Software, Inc., Point Richmond, Calif.).
(§3) A panel of benzene-derivatives containing different functional groups and substitution patterns were tested in enzyme assays with all three recombinant enzymes (Table 2), including a series of 5-n-alkylresorcinols of increasing chain length, as well as 5-n-pentadecatrienyl resorcinol, the proposed sorgoleone pathway intermediate and in vivo substrate for the participating OMT enzyme (FIG. 1). For these analyses, full-length open reading frames for all three OMTs were overexpressed in E. coli as N-terminal polyhistidine fusions, purified using an activated Ni-column, then radiometrically assayed in the presence of different substrates as described by Wang and Pichersky (1999, supra), with slight modifications.

[4] = tested on: human breast cancer and murine lymphoid neoplasma cell lines; details: cited from earlier work
[5] = tested on: Candida albicans, Cryptococcus neoformans, Staphylococcus aureus, and methicillin-resistant S. aureus; details: Rimando et al. 2003a; cited from earlier work
[6] = tested on: Phaeoacremonium aleophilum, Phaeomoniella chlamydospora, Libertella blepharis, Fomitiporia punctata and Stereum hirsutum; details: Mazzullo et al. 2000; cited from earlier work
[7] = biological target: T2, SbOMT2; experiment: Reaction of recombinant SbOMT2 with resveratrol, GC-MS analysis; assay type: biochemical
Description: as §1

[8] = tested on: CCCCCCc1cc(O)cc(O)c1; experiment: purified protein, by the assay type; assay type: biochemical, Sorghum bicolor; details: other: recombinant SbOMT3, alkylresorcinols and co-substrate SAM; pH 7.5; 30.0 °C
Method: as §2, §3

[9] = tested on: CCCCc1cc(O)cc(O)c1; experiment: purified protein, by the assay type; assay type: biochemical, Sorghum bicolor; details: other: recombinant SbOMT3, alkylresorcinols and co-substrate SAM; pH 7.5; 30.0 °C
Method: as §2, §3

[10] = tested on: CCCCCCCc1cc(O)cc(O)c1; experiment: purified protein, by the assay type; assay type: biochemical, Sorghum bicolor; details: other: recombinant SbOMT3, alkylresorcinols and co-substrate SAM; pH 7.5; 30.0 °C
Method: as §2, §3

[11] = tested on: CCCCCc1cc(O)cc(O)c1; experiment: purified protein, by the assay type; assay type: biochemical, Sorghum bicolor; details: other: recombinant SbOMT3, alkylresorcinols and co-substrate SAM; pH 7.5; 30.0 °C
Method: as §2, §3

[12] = substrate: Oc1ccc(C=Cc2cc(O)cc(O)c2)cc1; experiment: purified protein, by the assay type; details: other: recombinant SbOMT1, substrate resveratrol; pH 7.5; 30.0 °C
[13] = recombinant SbOMT3, alkylresorcinols

| Molecule | Relative Activity (%) of Recombinant SbOMT1 [2] | Relative Activity (%) of Recombinant SbOMT3 [3] | other results |
| --- | --- | --- | --- |
| COc1ccc(C=Cc2cc(O)cc(O)c2)cc1 [3,5-dihydroxy-4′-methoxystilbene] |  |  | share of the product obtained from reaction of SbOMT1 with resveratrol [1]: 88% |
| COc1ccc(O)cc1 [4-Methoxyphenol] | 8.3 ± 0.5% | 3.3 ± 0.6% |  |
| CCCCc1cc(O)cc(O)c1 [5-n-Butyl-resorcinol] | 1.1 ± 0.1% | 42.0 ± 1.2% |  |
| CCCCCCCc1cc(O)cc(O)c1 [5-n-Heptyl-resorcinol] | 0% | 27.2 ± 1.3% |  |
| CCCCCCc1cc(O)cc(O)c1 [5-n-Hexyl-resorcinol] | 0% | 79.4 ± 7.6% |  |
| CCCCCCCCCc1cc(O)cc(O)c1 [5-n-Nonyl-resorcinol] | 0% | 3.3 ± 0.8% |  |
| CCCCCCCCCCCCCCCc1cc(O)cc(O)c1 [5-n-Pentadecyl-resorcinol] | <1.0% | 5.0 ± 0.4% |  |
| CCCCCc1cc(O)cc(O)c1 [5-n-Pentyl-resorcinol] |  | 100 ± 2.2% |  |
| CCCc1cc(O)cc(O)c1 [5-n-Propyl-resorcinol] | 2.2 ± 0.9% | 11.8 ± 0.2% | Kcat [3, 13]: 1.9 s^−1 × 10^4; V max [3, 13]: 15.6 nmol/mg/h; Km [3]: 1440 µM |
| C=CC/C=C\C/C=C\CCCCCCCc1cc(O)cc(O)c1 [5-n-[8′, 11′, 14′]-Pentadecatrienyl-resorcinol] |  | 14.9 ± 4.3% | activity of SbOMT3 relative to that for 5-pentadecyl resorcinol ([3]; higher than saturated side chain analogue of identical length): approximately 3 fold |
| O=C(O)/C=C/c1ccc(O)c(O)c1 [Caffeic acid] |  | 3.6 ± 0.6 3.6 ± 0.6% |  |
| Oc1ccccc1O [Catechol] |  | 3.6 ± 0.6 3.6 ± 0.6% |  |
| C=CCc1ccc(O)c(OC)c1 [Eugenol] | 100 ± 5.2% | 3.2 ± 0.5% |  |
| COc1cc(/C=C/C(=O)O)ccc1O [Ferulic acid] | 3.1 ± 0.3% | 3.5 ± 0.6% |  |
| COc1ccccc1O [Guaiacol] | 7.8 ± 0.5% | 3.2 ± 0.6% |  |
| COc1cc(C)cc(O)c1 [Orcinol monomethyl ether] | 49.6 ± 1.6% | 3.5 ± 0.5% |  |
| Cc1cc(O)cc(O)c1 [Orcinol] | 1.3 ± 0.7% | 4.5 ± 0.1% |  |
| COc1cc(/C=C/c2ccc(O)cc2)cc(OC)c1 [Pterostilbene] |  |  | cytotoxicity against cancer cell lines [4]: cytotoxic |
| COc1cccc(O)c1 [Resorcinol monomethyl ether] | 24.8 ± 1.1% | 3.2 ± 0.7% |  |
| Oc1cccc(O)c1 [Resorcinol] |  | 4.1 ± 0.1% |  |
| Oc1ccc(C=Cc2cc(O)cc(O)c2)cc1 [Resveratrol] |  |  | inhibition of human pathogens [5]: ineffective; inhibition of esca fungi (mycelial growth) [6]: did not inhibit mycelial growth; reaction of SbOMT2 with resveratrol [7]: did not react |
| C[S+](CC[C@H](N)C(=O)[O-])C[C@H]1O[C@@H](n2cnc3c(N)ncnc32)[C@H](O)[C@@H]1O (stereo partly drawn) [SAM, S-Adenosyl-L-Methionine] |  |  | Km ([3]; read-out: Km): 67.5 µM |
| O=C(O)/C=C/c1ccc(O)cc1 [p-Coumaric acid] | 0% | 3.5 ± 0.4% |  |
| SbOMT3 (Sorghum bicolor; DUP296-296) |  |  | Km [8]: 72 µM; Vmax [8]: 0.00042 µmol/min/mg; kcat [8]: 0.0003 s⁻¹; kcat/Km [8]: 4.2 M⁻¹ s⁻¹; Km [9]: 481 µM; Vmax [9]: 0.00055 µmol/min/mg; kcat [9]: 0.00039 s⁻¹; kcat/Km [9]: 0.81 M⁻¹ s⁻¹; Km [10]: 23 µM; Vmax [10]: 0.000173 µmol/min/mg; kcat [10]: 0.00012 s⁻¹; kcat/Km [10]: 5.2 M⁻¹ s⁻¹; Km [11]: 152 µM; Vmax [11]: 0.000653 µmol/min/mg; kcat [11]: 0.00047 s⁻¹; kcat/Km [11]: 3.1 M⁻¹ s⁻¹ |
| SbOMT1 (Sorghum bicolor) (protein) MASYTSTSGQFAVGKVAAANQDDETCMHALKLLGGLAVPFTIKAVIELGIMDLLLAADRAMTAEALTAALLCPAPAPAAAAAMVDRMLRFLASHGVVRCATESEELGSDDGKSCRRYAAAPVCKWFARGGGVESVVPMGFWMTSTTNMETWHNIKDGVLAGETPFDKAYGMPVFEYLGANGTMNTLFNEAMASHSMIITKRLLEVFRGFENYSVLVDVGGGNGTTMQMIRSQYENISGINYDLPHVIAQASPIEGVEHVAGNMFDNIPRGDAIILKWILHNWGDKECVKILKNCYTALPVNGTVIILEYILPETPEETLASQLAFDFDLGMMLFFGASGKERTEKELLELAREAGFSGDYTATYIFANVWAHEFTK |  |  | Km [12]: 16.9 ± 1.2 µM; Vmax [12]: 0.00014 µmol/min/mg; kcat [12]: 0.0001 s⁻¹; kcat/Km [12]: 5.9 M⁻¹ s⁻¹ |
